These results are taken from ChEMBL document CHEMBL1201862, “PubChem BioAssay data set” (2004).

Test systems include Malme-3M; HOP-92; SK-OV-3; HCT-15; CCRF-CEM; LOX IMVI; CAKI-1; OVCAR-3; NCI/ADR-RES; DU-145; NCI-H522; MDA-MB-231; HOP-62; SNB-75; SW-620; SNB-19; SF-539; U-251.
Common to all, as to assay: NCI anticancer screen, dose series, 48 h

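Five concentrations, 48 hours, 96-well plates. GI50 = concentration required for 50% inhibition of growth.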 Calls of active or inactive are those of the source. No stated cut-off is given here; in the data, active = GI50 up to about 1.1 µM and inactive = higher. Bounds are passed on as bounds.

With `O=C(NNCc1ccco1)c1cc2ccccc2[nH]1`, the GI50 in the assay on Malme-3M is > 100 µM (inactive); with HOP-92, 48 µM (inactive); with SK-OV-3 it was > 56 µM (inactive); in the assay with HCT-15, > 87.5 µM; in the assay on CCRF-CEM, > 100 µM (inactive); in the assay with LOX IMVI, > 100 µM (inactive). The GI50 in the assay with CAKI-1 was > 100 µM (inactive); in the assay on OVCAR-3, > 55.6 µM (inactive); with NCI/ADR-RES, > 52.4 µM (inactive); with DU-145, > 100 µM (inactive); in the assay on NCI-H522, 34.3 µM (inactive); with MDA-MB-231, > 100 µM (inactive). Also, the GI50 in the assay on HOP-62 was > 52.6 µM (inactive); in the assay on SNB-75 it was 47.9 µM (inactive); in the assay on SW-620 it was > 100 µM (inactive); in the assay with SNB-19, > 80.2 µM (inactive); in the assay with SF-539 it was > 61.9 µM (inactive).

In the case of `COc1ccc2c(c1)C(N)=C(c1ccccc1)C2=O`, the GI50 was > 100 µM (inactive) in the assay with Malme-3M; > 100 µM (inactive) with HOP-92; 49 µM (inactive) in the assay on SK-OV-3; > 100 µM with HCT-15; 94.4 µM (inactive) in the assay with U-251; > 100 µM (inactive) in the assay with CCRF-CEM. The GI50 in the assay on LOX IMVI was > 100 µM (inactive); in the assay with CAKI-1, > 100 µM (inactive); with OVCAR-3, > 100 µM (inactive); with NCI/ADR-RES, 36.6 µM (inactive); in the assay on DU-145 it was > 100 µM (inactive); in the assay on NCI-H522 it was > 100 µM (inactive). The GI50 in the assay with MDA-MB-231 is 51.3 µM (inactive); in the assay on HOP-62, > 100 µM (inactive); in the assay on SNB-75 it was 12.6 µM (inactive); with SW-620 it was > 100 µM (inactive); in the assay on SNB-19, 24.4 µM (inactive); with SF-539, > 100 µM (inactive).

As for `CCOC(=O)c1c(Br)c(-c2ccc([N+](=O)[O-])cc2)c(Br)n1C`, the GI50 was > 10 µM (inactive) in the assay on Malme-3M; 2.47 µM (inactive) with HOP-92; > 10 µM (inactive) in the assay with SK-OV-3; > 10 µM with HCT-15; > 10 µM (inactive) in the assay on U-251; > 10 µM (inactive) in the assay with CCRF-CEM. For the same molecule, the GI50 in the assay with LOX IMVI, in the assay on CAKI-1, in the assay on OVCAR-3, with NCI/ADR-RES, in the assay with DU-145 and in the assay with NCI-H522 was > 10 µM (inactive) each time. Also, the GI50 in the assay with MDA-MB-231 is > 10 µM (inactive); in the assay on HOP-62, > 10 µM (inactive); in the assay with SNB-75 it was 2.49 µM (inactive); in the assay on SNB-19, > 10 µM (inactive); in the assay with SF-539, > 10 µM (inactive).

Consider `CC(C)OP(=O)(OC(C)C)/C(C#N)=C/c1ccco1`, for which the GI50 in the assay with Malme-3M was > 100 µM (inactive); in the assay with HOP-92, > 100 µM (inactive); in the assay on SK-OV-3, > 100 µM (inactive); in the assay on HCT-15 it was > 100 µM; in the assay on U-251 it was > 100 µM (inactive); with CCRF-CEM, > 100 µM (inactive). For the same molecule, the GI50 in the assay with LOX IMVI, in the assay on CAKI-1, with OVCAR-3, in the assay with NCI/ADR-RES, with DU-145 and with NCI-H522 was > 100 µM (inactive) each time. Also, the GI50 in the assay on MDA-MB-231, in the assay on HOP-62, in the assay on SNB-75, in the assay on SW-620, in the assay on SNB-19 and in the assay on SF-539 was > 100 µM (inactive) in each case.

For `O=[N+]([O-])c1ccc(Cl)c(/C=N/C23CC4CC(CC(C4)C2)C3)c1`, the GI50 with Malme-3M is > 10 µM (inactive); with HOP-92, > 10 µM (inactive); in the assay on SK-OV-3, > 10 µM (inactive); in the assay on HCT-15 it was > 6.46 µM; in the assay with U-251, > 7.48 µM (inactive); with CCRF-CEM it was 3.8 µM (inactive). Besides, the GI50 in the assay with LOX IMVI is > 9.12 µM (inactive); with CAKI-1, > 10 µM (inactive); with OVCAR-3, > 9.48 µM (inactive); in the assay with NCI/ADR-RES, > 9.1 µM (inactive); with DU-145, > 10 µM (inactive); in the assay with NCI-H522, > 10 µM (inactive). In addition, the GI50 in the assay with MDA-MB-231 was > 10 µM (inactive); in the assay on HOP-62, > 10 µM (inactive); in the assay on SNB-75, > 10 µM (inactive); with SW-620, > 10 µM (inactive); in the assay on SNB-19 it was > 10 µM (inactive); in the assay on SF-539, 5.33 µM (inactive).

Consider `Nc1nc(N)c2c(n1)NC(c1ccccc1)CC(/C=C/c1ccc(Cl)cc1)=N2` (stereo not given), for which the GI50 is 13.5 µM (inactive) in the assay with Malme-3M; 3.94 µM (inactive) in the assay with HOP-92; 15.7 µM (inactive) in the assay with SK-OV-3; 5.97 µM with HCT-15; 5.87 µM (inactive) with U-251; 4.84 µM (inactive) in the assay with CCRF-CEM. The GI50 in the assay with LOX IMVI is 3.49 µM (inactive); with CAKI-1, 7.87 µM (inactive); with OVCAR-3, 5.62 µM (inactive); in the assay on NCI/ADR-RES, 3.15 µM (inactive); in the assay on DU-145, 9.23 µM (inactive); in the assay on NCI-H522 it was 1.76 µM (inactive). For the same molecule, the GI50 was 3.23 µM (inactive) with MDA-MB-231; 14.8 µM (inactive) in the assay on HOP-62; 18.5 µM (inactive) with SNB-75; 10.4 µM (inactive) in the assay with SW-620; 12.8 µM (inactive) with SNB-19; 15.5 µM (inactive) in the assay with SF-539.

As to `COc1cc2cc(C(=O)N3CC(CCl)c4c3cc(NC(=O)C(C)(C)c3ccccc3[N+](=O)[O-])c3ccccc43)[nH]c2c(OC)c1OC` (stereo not given), the GI50 is 7.31 µM (inactive) in the assay with Malme-3M; 2.38 µM (inactive) in the assay on HOP-92; 2.75 µM (inactive) in the assay with SK-OV-3; 1.98 µM in the assay with HCT-15; 0.54 µM (active) with U-251; 0.13 µM (active) in the assay on CCRF-CEM. In addition, the GI50 was 0.993 µM (active) in the assay on LOX IMVI; 0.0687 µM (active) with CAKI-1; 82 µM (inactive) in the assay on OVCAR-3; 1.12 µM (active) with NCI/ADR-RES; 0.147 µM (active) in the assay with DU-145; 1.99 µM (inactive) in the assay with NCI-H522. Besides, the GI50 in the assay with MDA-MB-231 is 3.03 µM (inactive); in the assay on HOP-62 it was 0.187 µM (active); in the assay with SNB-75, 3.76 µM (inactive); with SW-620 it was 1.09 µM (active); in the assay with SNB-19, 4.36 µM (inactive); in the assay with SF-539, 4.78 µM (inactive).

As for `COc1cc(C(=O)OC2CC34CCNC35CC(OC5(OC)C2O)c2cc3c(cc24)OCO3)ccc1O` (stereo not given), the GI50 was 8.11 µM (inactive) in the assay on Malme-3M; > 100 µM (inactive) in the assay on HOP-92; > 100 µM (inactive) with SK-OV-3; > 100 µM in the assay on HCT-15; > 100 µM (inactive) with U-251; > 100 µM (inactive) in the assay with CCRF-CEM. Also, the GI50 with LOX IMVI, in the assay with CAKI-1, with OVCAR-3, with NCI/ADR-RES, in the assay with DU-145 and in the assay on NCI-H522 was > 100 µM (inactive) throughout. Moreover, the GI50 is > 100 µM (inactive) in the assay on MDA-MB-231; > 100 µM (inactive) with HOP-62; 46.8 µM (inactive) in the assay with SNB-75; > 100 µM (inactive) in the assay on SW-620; > 100 µM (inactive) in the assay on SNB-19; > 100 µM (inactive) with SF-539.

As to `C=CCOc1ccc(C2c3c(n[nH]c3O)CC(O)(OCC)C2C(=O)OCC)cc1OC` (stereo not given), the GI50 in the assay on Malme-3M was > 100 µM (inactive); with HOP-92, > 100 µM (inactive); with HCT-15, > 100 µM; with U-251, > 100 µM (inactive); in the assay on CCRF-CEM, > 100 µM (inactive); in the assay with LOX IMVI, > 100 µM (inactive). In addition, the GI50 in the assay with CAKI-1, in the assay with OVCAR-3, with NCI/ADR-RES, in the assay with DU-145, in the assay with NCI-H522 and in the assay on MDA-MB-231 was > 100 µM (inactive) each time. The GI50 in the assay with HOP-62, in the assay on SNB-75, in the assay on SW-620, with SNB-19 and with SF-539 was > 100 µM (inactive) in each case.

Turning to `O=C1/C(=C/c2ccc([N+](=O)[O-])cc2)CCCc2ccccc21`, the GI50 is > 100 µM (inactive) in the assay on Malme-3M; > 100 µM (inactive) in the assay on HOP-92; > 100 µM (inactive) in the assay on SK-OV-3; 69.2 µM in the assay on HCT-15; > 100 µM (inactive) in the assay with U-251; > 100 µM (inactive) in the assay with CCRF-CEM. For the same molecule, the GI50 in the assay on LOX IMVI, with CAKI-1, in the assay on OVCAR-3, with NCI/ADR-RES, in the assay with DU-145 and in the assay with NCI-H522 was > 100 µM (inactive) in each case. Besides, the GI50 is > 100 µM (inactive) with MDA-MB-231; 54.3 µM (inactive) in the assay on HOP-62; 83.4 µM (inactive) with SNB-75; > 100 µM (inactive) with SW-620; 32.1 µM (inactive) with SNB-19; 76.2 µM (inactive) in the assay with SF-539.

With `Cc1cnc2nc(-c3ccc(F)cc3)cc(O)c2c1`, the GI50 in the assay on Malme-3M was 33.9 µM (inactive); in the assay with HOP-92, 33.2 µM (inactive); in the assay on SK-OV-3 it was 21.6 µM (inactive); in the assay with HCT-15 it was 7.66 µM; with U-251, 23.1 µM (inactive); with CCRF-CEM, 25.6 µM (inactive). Moreover, the GI50 was 40.4 µM (inactive) in the assay with LOX IMVI; 50.9 µM (inactive) with CAKI-1; 27.5 µM (inactive) in the assay on OVCAR-3; 27.2 µM (inactive) in the assay on NCI/ADR-RES; 43 µM (inactive) in the assay with DU-145; 13 µM (inactive) in the assay with NCI-H522. Also, the GI50 is > 73.1 µM (inactive) in the assay on MDA-MB-231; 37.5 µM (inactive) in the assay on HOP-62; 20.1 µM (inactive) in the assay on SNB-75; 19 µM (inactive) in the assay on SW-620; 35.4 µM (inactive) with SNB-19; 26.6 µM (inactive) in the assay with SF-539.
